From US8455491B2, “6-cycloamino-3-(pyridazin-4-yl)imidazo[1,2-b]pyridazine and derivatives and pharmaceutical compositions comprising the same” (Sanofi, priority 2007, dated 2013) come the findings set out here.

What is called IC50 is the midpoint of a concentration-inhibition curve. For orientation: melting point means the temperature of the solid-liquid transition.

The subject of series [1] is Mper1-luc Rat-1 (P2C4) fibroblasts. Briefly: Circadian cell assay (mPer1-luciferase reporter, period prolongation). It is filed as cell-based. As to conditions: effective concentration that induced a 1-hour prolongation of the circadian period, interpolated from hyperbolic curve. On the procedure: Experimental Protocols for Circadian Cell Assay
Mper1-luc Rat-1 (P2C4) fibroblast cultures were prepared by dividing the cultures every 3-4 days (approximately 10-20% of confluence) on 150 cm^2 degassed polystyrene tissue culture flasks (Falcon® #35-5001) and maintained in growth medium [EMEM (Cellgro #10-010-CV); 10% fetal bovine serum (FBS; Gibco #16000-044); and 50 I.U./ml of penicillin-streptomycin (Cellgro #30-001-CI)] at 37° C. and under 5% CO2.
Cells obtained from Rat-1 fibroblast cultures at 30-50% of confluence as described above were co-transfected with vectors containing the selection marker for resistance to zeocin for a stable transfection and a luciferase reporter gene controlled by the mPer-1 promoter. After 24 to 48 hours, the cultures were divided on 96-well plates and maintained in growth medium supplemented with 50-100 μg/ml of zeocin (Invitrogen® #45-0430) for 10-14 days. The zeocin-resistant stable transfectants were evaluated for the expression of the reporter by adding 100 μM lucerfin (Promega® #E1603®) to the growth medium and by assaying the luciferase activity on a TopCount® scintillation counter (Packard Model #C384V00). The Rat-1 cell clones expressing both zeocin resistance and lucerifase activity controlled by mPer1 were serum-shock synchronized with 50% horse serum [HS (Gibco® #16050-122)] and the activity of the circadian reporter was evaluated. The P2C4 clone of Mper1-luc Rat-1 fibroblasts was selected to test the compound.
Mper1-luc Rat-1 (P2C4) fibroblasts at 40-50% of confluence, obtained according to the protocol described above, were plated out onto 96-well opaque tissue culture plates (Perkin Elmer® #6005680). The cultures are maintained in growth medium supplemented with 100 μg/ml of zeocin (Invitrogen #45-0430) until they reach 100% of confluence (48-72 h). The cultures were then synchronized with 100 μl of synchronization medium [EMEM (Cellgro #10-010-CV); 100 I.U./ml of penicillin-streptomycin (Cellgro #30-001-C1); 50% HS (Gibco #16050-122)] for 2 hours at 37° C. and under 5% CO2. After synchronization, the cultures were rinsed with 100 μl of EMEM (Cellgro #10-010-CV) for 10 minutes at ambient temperature. […]
The period analysis was performed either by determining the interval between the relative light emission minima over several days or by Fourier transform. […] The data were analyzed by adjusting a hyperbolic curve to the data expressed as change of period (y-axis) as a function of the concentration of the test compound (x-axis) in the XLfit™ software and the CE Delta (t+1 h) was interpolated from this curve.
On the technique in general: A reporter such as luciferase makes a cellular process visible.

In series [2] the target is T1, casein kinase 1 epsilon (CK1 epsilon) (Homo sapiens, UniProt P49674).
T1 construct: Invitrogen Corporation (named as alternative)
T1 sequence (P49674 whole entry): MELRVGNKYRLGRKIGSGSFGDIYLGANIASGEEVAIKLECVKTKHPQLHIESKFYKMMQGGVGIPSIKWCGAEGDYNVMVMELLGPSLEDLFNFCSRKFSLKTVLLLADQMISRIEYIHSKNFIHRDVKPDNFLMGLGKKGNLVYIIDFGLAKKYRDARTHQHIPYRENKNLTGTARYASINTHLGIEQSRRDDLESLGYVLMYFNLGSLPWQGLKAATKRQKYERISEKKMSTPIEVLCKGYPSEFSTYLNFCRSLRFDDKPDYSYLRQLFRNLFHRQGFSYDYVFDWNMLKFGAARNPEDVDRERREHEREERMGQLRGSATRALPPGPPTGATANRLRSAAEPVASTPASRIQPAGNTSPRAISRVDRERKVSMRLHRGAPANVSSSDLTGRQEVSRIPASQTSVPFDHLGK
The experiment in a line: Filter-plate assay of ATP-33P, inhibition of casein phosphorylation by CK1 epsilon. It is filed as biochemical. To be noted: casein substrate, ATP 10 μM, 2 hours at ambient temperature. On the procedure: The capacity of the compounds of the invention to inhibit the phosphorylation of casein by casein kinase 1 epsilon and delta may be evaluated according to the procedure described in US 2005/0131012.
Filter-Plate Assay of ATP-^33P for the Screening of CK1 Epsilon Inhibitors:
The effect of the compounds on inhibition of the phosphorylation of casein by the enzyme casein kinase 1 epsilon (CK1 epsilon) is measured, using a casein assay with filtration of ATP-^33P in vitro.
Casein kinase 1 epsilon (0.58 mg/ml) is obtained via fermentation and purification processes performed according to methods that are well known to those skilled in the art, or may also be obtained from Invitrogen Corporation™ (human CK1 epsilon).
The compounds are tested at five different concentrations so as to generate IC50 values, i.e. the concentration at which a compound is capable of inhibiting the enzymatic activity by 50%, or alternatively the percentage of inhibition at a concentration of 10 micromolar.
“U”-bottomed Falcon plates are prepared by placing 5 μL of solutions of the compounds according to the invention at concentrations of 10, 1, 0.1, 0.01 or 0.001 μM in various wells. The solutions of the compounds according to the invention at these various concentrations are prepared by diluting in a test buffer (50 mM Tris, pH 7.5, […], 2 mM DTT and 1 mM EGTA) a stock solution in DMSO at a concentration of 10 mM. Next, 5 μL of dephosphorylated casein are added to a final concentration of 0.2 μg/μL, 20 μl of CK1 epsilon to a final concentration of 3 ng/μl, and 20 μl of ATP-^33P to a final concentration of 0.02 μCi/μl mixed with cold ATP (10 μM final—approximately 2×10^6 CPM per well). The final total test volume per well is equal to 50 μl.
The “U”-bottomed Falcon® test plate mentioned above is vortexed, and then incubated at ambient temperature for 2 hours. After 2 hours, the reaction is stopped by adding an ice-cold solution of 65 μl of ATP (2 mM) prepared in test buffer.
100 μl of the reaction mixture are then transferred from the “U”-bottomed Falcon® plate into Millipore® MAPH filter plates, preimpregnated with 25 μl of ice-cold 100% TCA. […]
The plates are left to dry overnight at ambient temperature. […] The radiation emitted by each well is then measured for 2 minutes in a Packard® Topcount NXT scintillation counter, in which the values of CPM/well are measured.
The percentage inhibition of the capacity of the enzyme to phosphorylate the substrate (casein) is determined for each concentration of compound tested. These inhibition data expressed as percentages are used to calculate the IC50 value for each compound compared with the controls.
The kinetic studies determined the KM value for ATP as being 21 μM in this test system.

For the compound `CN1CCN(c2ccc3nc(-c4ccc(F)cc4)c(-c4ccnnc4)n3n2)CC1` [compound 5, 2-(4-fluorophenyl)-6-(4-methylpiperazin-1-yl)-3-pyridazin-4-yl-imidazo[1,2-b]pyridazine], the melting point was in the range of 232 to 233 °C. Also, the “CE Delta (t + 1 h)” value in series [1] was 5 nM. The IC50 in series [2] lay within 16 to 33 nM.
